Laboratory results from US7429564B2, “Oral insulin therapy” (Emisphere Technologies, Inc., priority 2002, dated 2008).
Like-named read-outs stand apart in the source and are kept apart here.

Test: Example 5: 4-CNAB plasma pharmacokinetics, single oral doses, healthy male volunteers
Type: in vivo, human
Conditions: for AUC(0-inf) / AUC(0-t) / Cmax / MRT inf / Vd/F / half-life / Tmax / MRT / MRT last: male, human, plasma; for AUC(0-inf) / AUC(0-t) / Cmax / MRT inf / Vd/F / half-life / Tmax / MRT: po; for MRT inf: read-out: 4-CNAB MRT(0-inf); for half-life: read-out: 4-CNAB t1/2 (converted); for MRT: read-out: 4-CNAB MRT(0-f); for MRT last: read-out: 4-CNAB MRT(0-t)
Method: A single center, double-blind, randomized placebo-controlled study undertaken in healthy human subjects in order to assess the safety and tolerability of escalating single oral doses of 4-CNAB capsules and insulin/4-CNAB capsules.
Within each treatment period in each group, eight subjects were planned to receive active treatment and two subjects to receive placebo. In Group 1, there were four escalating single doses of 4-CNAB (400, 800, 1400 and 2000 mg) and each subject received either all four of these escalating doses or three escalating single doses and one dose of placebo. […] In Group 3 there were three escalating oral doses of Insulin/4-CNAB (100 Units/300 mg, 100 Units/450 mg and 150 Units/100 mg) and one SC dose of 150 Units of insulin. Each subject received either all four of these treatments or three of these treatments and one placebo treatment. For all groups, there was a washout period of at least 72 hours between treatment periods.
The concentration of 4-CNAB in plasma was determined using a combination of liquid chromatography and Mass spectrometry assay known as LC-MS/MS. The method involves protein precipitation followed by separation on liquid chromatography using a Hypersil BDS column and a mobile phase consisting of methanol and acetate buffer. The eluting peaks were quantified by MS/MS. The equipment used for the determination of 4-CNAB in plasma comprises of an Agilent 1100 modular HPLC system with a Micromass Quattro Micro MS/MS detector. HPLC and AR grade chemicals and reagents were used throughout the study.
On the basis of plasma concentrations of 4-CNAB and insulin, PK analysis was performed using non-compartmental PK methods as implemented in WinNonlin™ Professional version 3.2. The profiles for insulin and C-peptide corrected insulin were evaluated up to 6 hours as food was given 6 hours following insulin treatment. The following parameters were derived for 4-CNAB: Cmax, tmax, AUC(0-t), AUC(0-inf), AUC% Extrap, Kel, t1/2, CL/F, Vd/F, MRT(0-t), MRT(0-inf) and Frel. The following parameters were derived for insulin and C-peptide corrected insulin: Cmax, tmax, AUC(0-2), AUC(0-6), AUC(0-t) and concentrations (C^b) and corresponding time (t^b) immediately prior to intervention for hypoglycemia.

[1] = 2000 mg, 4-CNAB alone 2000 mg oral
[2] = with insulin, 100 Units/300 mg oral
[3] = with insulin, 100 Units/450 mg oral
[4] = with insulin, 100 Units/600 mg oral
[5] = with insulin, 150 Units/100 mg oral
[6] = with insulin, 150 Units/200 mg oral

O=C(O)CCCNC(=O)c1ccc(Cl)cc1O [4-CNAB, 4-[(4-chloro, 2-hydroxybenzoyl)amino]butanoic acid]
AUC(0-inf) [1]: 192000 ± 37100 ng·h/mL
AUC(0-t) [1]: 204000 ± 103000 ng·h/mL
Cmax [1]: 135000 ± 86600 ng/mL
MRT inf [1]: 7.45 ± 2.36 h
Vd/F (2000 mg, 4-CNAB alone 2000 mg oral, read-out: 4-CNAB Vd/F): 245 ± 131 L
half-life [1]: 15.3 ± 6.9 h
Tmax (2000 mg, 4-CNAB alone 2000 mg oral, read-out: 4-CNAB tmax, median (range)): 0.75 h
AUC(0-inf) [2]: 9240 ± 5940 ng·h/mL
AUC(0-t) [2]: 8740 ± 5520 ng·h/mL
Cmax [2]: 8900 ± 6350 ng/mL
MRT [2]: 1.51 ± 0.16 h
MRT inf [2]: 2.43 ± 0.82 h
Vd/F (with insulin, 100 Units/300 mg oral, read-out: 4-CNAB Vz/F): 324 ± 239 L
half-life [2]: 5.3 ± 3.3 h
Tmax (with insulin, 100 Units/300 mg oral, read-out: 4-CNAB tmax, median): 0.5 h
AUC(0-inf) [3]: 26800 ± 4560 ng·h/mL
AUC(0-t) [3]: 26000 ± 4410 ng·h/mL
Cmax [3]: 23200 ± 7930 ng/mL
MRT [3]: 1.79 ± 0.5 h
MRT inf [3]: 2.3 ± 0.46 h
Vd/F (with insulin, 100 Units/450 mg oral, read-out: 4-CNAB Vz/F): 101 ± 35 L
half-life [3]: 4.1 ± 1.2 h
Tmax (with insulin, 100 Units/450 mg oral, read-out: 4-CNAB tmax, median): 0.5 h
AUC(0-inf) [4]: 37600 ± 5430 ng·h/mL
AUC(0-t) [4]: 36600 ± 5760 ng·h/mL
Cmax [4]: 35800 ± 12300 ng/mL
MRT [4]: 1.45 ± 0.17 h
MRT inf [4]: 1.9 ± 0.58 h
Vd/F (with insulin, 100 Units/600 mg oral, read-out: 4-CNAB Vz/F): 96 ± 35 L
half-life [4]: 4.1 ± 1.2 h
Tmax (with insulin, 100 Units/600 mg oral, read-out: 4-CNAB tmax, median): 0.5 h
AUC(0-inf) [5]: 4920 ± 1100 ng·h/mL
AUC(0-t) [5]: 4680 ± 1080 ng·h/mL
Cmax [5]: 6200 ± 3600 ng/mL
MRT [5]: 1.42 ± 0.56 h
MRT inf [5]: 2.39 ± 1.39 h
Vd/F (with insulin, 150 Units/100 mg oral, read-out: 4-CNAB Vz/F): 148 ± 102 L
half-life [5]: 4.8 ± 3.4 h
Tmax (with insulin, 150 Units/100 mg oral, read-out: 4-CNAB tmax, median): 0.5 h
AUC(0-inf) [6]: 10300 ± 2080 ng·h/mL
AUC(0-t) [6]: 10000 ± 1890 ng·h/mL
Cmax [6]: 10100 ± 5090 ng/mL
MRT [6]: 1.59 ± 0.23 h
MRT inf [6]: 1.97 ± 0.39 h
Vd/F (with insulin, 150 Units/200 mg oral, read-out: 4-CNAB Vz/F): 89 ± 35 L
half-life [6]: 3.2 ± 1.4 h
Tmax (with insulin, 150 Units/200 mg oral, read-out: 4-CNAB tmax, median): 0.5 h
MRT last (4-CNAB alone 400 mg oral): 1.6 ± 0.23 h
MRT last (4-CNAB alone 800 mg oral): 1.75 ± 0.22 h
MRT last (4-CNAB alone 1400 mg oral): 1.6 ± 0.2 h
MRT last (4-CNAB alone 2000 mg oral): 1.73 ± 0.31 h
4-CNAB Cl/F [2]: 834 ± 527 mL/min
4-CNAB Kel [2]: 0.19 ± 0.12 h⁻¹
4-CNAB Cl/F [3]: 287 ± 49 mL/min
4-CNAB Kel [3]: 0.185 ± 0.06 h⁻¹
4-CNAB Cl/F [4]: 271 ± 38 mL/min
4-CNAB Kel [4]: 0.19 ± 0.06 h⁻¹
4-CNAB Cl/F [5]: 352 ± 68 mL/min
4-CNAB Kel [5]: 0.22 ± 0.14 h⁻¹
4-CNAB Cl/F [6]: 338 ± 75 mL/min
4-CNAB Kel [6]: 0.25 ± 0.09 h⁻¹
